The record followed here is patent US10766888B1, “HMOX1 inducers” (Mitobridge Inc., priority 2019, dated 2020).

For the first data set, the system named is Human Heme Oxygenase-1 (HMOX-1). Put plainly: ELISA assay to measure human heme oxygenase-1 (HMOX-1) in HepG2 lysate. In kind it is cell-based. As to conditions: fold change of human HMOX1 protein level relative to DMSO control, HepG2. How it is done: Example 143. ELISA Assay to Measure Human Heme Oxygenase-1 (HMOX-1) in HepG2 lysate
Reagents and Technical Notes:
ELISA capture antibody, standard HO-1, detection antibody and streptavidin HRP were supplied in the DuoSet IC Human total HO-1 ELISA from R&D systems (DYC3776-2). The substrate cocktail was KPL LumiGLO reserve Chemiluminescent Substrate (54-71-00). PBS was Corning Cellgro Cell Culture (21-040-CV). 10×PBS+0.05% tween20 (PBST) was from KPL.
All incubations of the plate were at room temperature (20° C.) in a closed drawer.
The ELISA plate was processed manually. All loadings were with a multichannel pipet. Plates were emptied by shaking into the sink and tapping onto paper towels to remove any remaining reagent. Plate washing was accomplished by loading all wells with PBS+0.05% tween20 (PBST) using a squirt bottle, shaking the PBST out and tapping the plate onto paper towels.
Preparation of the ELISA Plate:
• 1. anti-HO-1 capture antibody was 1440 μg/ml after reconstitution in PBS. This antibody was diluted to 8 μg/ml in PBS and 50 μl per well was added to a 384 well greiner “lumitrac 200” plate. Incubated overnight. • 2. The plate was emptied and 100 μl PBS+1% BSA added to all wells. Incubated 90 minutes at room temperature. Preparation of HepG2 Lysate: • 1. Cells were cultured in a 96-well tissue culture plate washed with PBS and then the plate frozen at −70° C. overnight. Plates were allowed to warm to ice temperature in an ice bucket. 20 μl of PBS, 0.5% Triton X100, 1 mM EDTA with 1×HALT™ protease inhibitors was added to each well and the plates incubated on ice for 1 hour. • 2. The lysates were frozen at −20° C. overnight. Measurement of HMOX1 (“HO-1”) • 1. In a polypropylene 384 well plate, human HO-1 (after reconstitution in PBS+0.5% Triton+1 mM EDTA) was serially diluted from 20 ng/ml 2-fold in PBS+0.5% triton-X100, 1 mM EDTA to make a 12-point standard curve including a zero point. • 2. In a polypropylene 96 well plate, HepG2 lysate was diluted 1 to 20 in Diluent #4 from DUOSET kit in which the assay standard is also diluted. • 3. The PBS+1% BSA was emptied from the ELISA plate and 30 μl of all samples and standards were added (duplicates recommended). The plate was incubated 90 minutes. • 4. Emptied plate and washed 4 times with PBST. • 5. Diluted HO-1 detection antibody to 200 ng/ml in PBS+1% BSA and added 30 μl to all wells. Incubated 90 minutes. • 6. Emptied plate and washed 4 times with PBST. • 7. Added 30 μl streptavidin HRP at 1/200 in PBS+1% BSA (stock streptavidin concentration not specified) to all wells. Incubated 30 minutes. • 8. Emptied plate and washed 4 times with PBST. • 9. Diluted Lumiglo reserve reagent two parts buffer to one part lumiglo substrate. Added 30 μl to all wells. Incubated 5 minutes. • 10. Measured chemiluminescence on spectramax M5 using 150 ms integration.
Table 1 below lists EC50 and fold changes of human HMOX1 protein levels relative to DMSO control upon treatment with representative compounds.
In the case of `COCCOc1ccc2nc(Nc3nc4cc(C(=O)O)ccc4n3C)oc2c1` [Example 55, 2-((6-(2-methoxyethoxy)benzo[d]oxazol-2-yl)amino)-1-methyl-1H-benzo[d]imidazole-5-carboxylic acid], the “Maximum Fold induction” value was 15 fold.

Regarding `COCCNC(=O)c1ccc2c(c1)nc(Nc1nc3cc(C)ccc3o1)n2C` [Example 65, N-(2-methoxyethyl)-1-methyl-2-((5-methylbenzo[d]oxazol-2-yl)amino)-1H-benzo[d]imidazole-5-carboxamide], the “Maximum Fold induction” value worked out at 15.42 fold.

Staying with this data set, now noted: human HMOX1 protein level in HepG2 lysate; * = average of 2 or more EC50 determinations; NA = Not Active; read-out: EC50.
`Cn1c(Nc2nc3ccccc3o2)nc2cc(C(=O)O)ccc21` [Example 1h, 2-(benzo[d]oxazol-2-ylamino)-1-methyl-1H-benzo[d]imidazole-5-carboxylic acid]: the EC50 was determined as 4.4 µM.

Consider `COCCNC(=O)c1ccc2c(c1)nc(Nc1nc3ccccc3o1)n2C` [Example 1i, 2-(benzo[d]oxazol-2-ylamino)-N-(2-methoxyethyl)-1-methyl-1H-benzo[d]imidazole-5-carboxamide], for which the concentration giving a half-maximal response (EC50) came out at 0.8 µM.

Consider `COCCNC(=O)c1ccc2c(c1)nc(Nc1nc3ccc(OC(F)(F)F)cc3s1)n2C1CCOCC1` [Example 2e, N-(2-methoxyethyl)-1-(tetrahydro-2H-pyran-4-yl)-2-((6-(trifluoromethoxy)benzo[d]thiazol-2-yl)amino)-1H-benzo[d]imidazole-5-carboxamide], for which the 50% effective concentration (EC50) was found to be 3.8 µM.

With `CN1CCC(n2c(Nc3nc4ccc(OC(F)(F)F)cc4s3)nc3cc(C(=O)O)ccc32)CC1` [Example 3d, 1-(1-methylpiperidin-4-yl)-2-((6-(trifluoromethoxy)benzo[d]thiazol-2-yl)amino)-1H-benzo[d]imidazole-5-carboxylic acid], the EC50 worked out at 9.2 µM.

In the case of `COCCNC(=O)c1ccc2c(c1)nc(Nc1nc3ccc(OC(F)(F)F)cc3s1)n2C1CCN(C)CC1` [Example 3e, N-(2-methoxyethyl)-1-(1-methylpiperidin-4-yl)-2-((6-(trifluoromethoxy)benzo[d]thiazol-2-yl)amino)-1H-benzo[d]imidazole-5-carboxamide], the concentration for a half-maximal effect (EC50) came to 1.1 µM.

`CN1CCC(n2c(Nc3nc4ccc(OC(F)(F)F)cc4s3)nc3cc(C(=O)O)ccc32)C1` (stereo not shown) [Example 4d, 1-(1-methylpyrrolidin-3-yl)-2-((6-(trifluoromethoxy)benzo[d]thiazol-2-yl)amino)-1H-benzo[d]imidazole-5-carboxylic acid]: the EC50 is 4.7 µM.

As to `COCCNC(=O)c1ccc2c(c1)nc(Nc1nc3c(s1)COCC3)n2C` [Example 11, 2-((6,7-dihydro-4H-pyrano[4,3-d]thiazol-2-yl)amino)-N-(2-methoxyethyl)-1-methyl-1H-benzo[d]imidazole-5-carboxamide], the EC50 is 6.6 µM.

On to `COCCNC(=O)c1ccc2c(c1)nc(Nc1nc3ccccc3[nH]1)n2C` [Example 12, 2-((1H-benzo[d]imidazol-2-yl)amino)-N-(2-methoxyethyl)-1-methyl-1H-benzo[d]imidazole-5-carboxamide], for which the EC50 worked out at 4.5 µM.

In the case of `Cn1c(Nc2nc3cc(C(=O)O)ccc3n2C)nc2cc(OC(F)(F)F)ccc21` [Example 15, 1-methyl-2-((1-methyl-5-(trifluoromethoxy)-1H-benzo[d]imidazol-2-yl)amino)-1H-benzo[d]imidazole-5-carboxylic acid], the EC50 came out at 5.3 µM.

Take `CN(C)CCNC(=O)c1ccc2c(c1)nc(Nc1nc3ccccc3o1)n2C` [Example 21, 2-(benzo[d]oxazol-2-ylamino)-N-(2-(dimethylamino)ethyl)-1-methyl-1H-benzo[d]imidazole-5-carboxamide]: the EC50 turned out to be 1.1 µM.

For `Cn1c(Nc2nc3ccc(OC(F)(F)F)cc3o2)nc2cc(C(=O)NCCS(C)(=O)=O)ccc21` [Example 54, 1-methyl-N-(2-(methylsulfonyl)ethyl)-2-((6-(trifluoromethoxy)benzo[d]oxazol-2-yl)amino)-1H-benzo[d]imidazole-5-carboxamide], the EC50 turned out to be 3.2 µM.

With `COCCOc1ccc2nc(Nc3nc4cc(C(=O)O)ccc4n3C)oc2c1` [Example 55, 2-((6-(2-methoxyethoxy)benzo[d]oxazol-2-yl)amino)-1-methyl-1H-benzo[d]imidazole-5-carboxylic acid], the EC50 was 4.5 µM.

For `CC(C)c1ccc2nc(Nc3nc4cc(C(=O)O)ccc4n3C)oc2c1` [Example 59, 2-((6-isopropylbenzo[d]oxazol-2-yl)amino)-1-methyl-1H-benzo[d]imidazole-5-carboxylic acid], the concentration giving a half-maximal response (EC50) came to 3.3 µM.

With `COCCNC(=O)c1ccc2c(c1)nc(Nc1nc3cc(C)ccc3o1)n2C` [Example 65, N-(2-methoxyethyl)-1-methyl-2-((5-methylbenzo[d]oxazol-2-yl)amino)-1H-benzo[d]imidazole-5-carboxamide], the EC50 came out at 1.2 µM.

For the compound `Cn1c(Nc2nc3cc(F)ccc3o2)nc2cc(C(=O)O)ccc21` [Example 66, 2-((5-fluorobenzo[d]oxazol-2-yl)amino)-1-methyl-1H-benzo[d]imidazole-5-carboxylic acid], the EC50 came out at 5.4 µM.

With `Cn1c(Nc2nc3ccc(F)cc3o2)nc2cc(C(=O)O)ccc21` [Example 68, 2-((6-fluorobenzo[d]oxazol-2-yl)amino)-1-methyl-1H-benzo[d]imidazole-5-carboxylic acid], the EC50 was determined as 2 µM.

For the compound `Cn1c(Nc2nc3ccc(OC(F)(F)F)cc3o2)nc2cc(C(=O)O)c(F)cc21` [Example 70, 6-fluoro-1-methyl-2-((6-(trifluoromethoxy)benzo[d]oxazol-2-yl)amino)-1H-benzo[d]imidazole-5-carboxylic acid], the EC50 stood at 3.2 µM.

Regarding `CN(C)CCn1c(Nc2nc3ccc(OC(F)(F)F)cc3o2)nc2cc(C(=O)O)ccc21` [Example 74, 1-(2-(dimethylamino)ethyl)-2-((6-(trifluoromethoxy)benzo[d]oxazol-2-yl)amino)-1H-benzo[d]imidazole-5-carboxylic acid], the EC50 came out at 3.6 µM.

Regarding `COCCNC(=O)c1ccc2c(c1)nc(Nc1nc3cc(OC(F)(F)F)ccc3[nH]1)n2CCOC` [Example 76, N,1-bis(2-methoxyethyl)-2-((5-(trifluoromethoxy)-1H-benzo[d]imidazol-2-yl)amino)-1H-benzo[d]imidazole-5-carboxamide], the EC50 stood at 2.7 µM.

Turning to `COCCn1c(Nc2nc3ccc(OC(F)(F)F)cc3o2)nc2cc(C(=O)O)ccc21` [Example 77, 1-(2-methoxyethyl)-2-((6-(trifluoromethoxy)benzo[d]oxazol-2-yl)amino)-1H-benzo[d]imidazole-5-carboxylic acid], the EC50 was determined as 4.1 µM.

In the case of `COCCNC(=O)c1ccc2c(c1)nc(Nc1nc3ccc(OC(F)(F)F)cc3o1)n2CCOC` [Example 78, N,1-bis(2-methoxyethyl)-2-((6-(trifluoromethoxy)benzo[d]oxazol-2-yl)amino)-1H-benzo[d]imidazole-5-carboxamide], the EC50 worked out at 2.2 µM.

For the compound `COCCNC(=O)c1ccc2c(c1)nc(Nc1nc3ccc(OC(F)(F)F)cc3o1)n2C1CCOCC1` [Example 80, N-(2-methoxyethyl)-1-(tetrahydro-2H-pyran-4-yl)-2-((6-(trifluoromethoxy)benzo[d]oxazol-2-yl)amino)-1H-benzo[d]imidazole-5-carboxamide], the EC50 turned out to be 1.9 µM.

`COCCNC(=O)c1ccc2c(c1)nc(Nc1nc3cc(OC(F)(F)F)ccc3[nH]1)n2C1CCOCC1` [Example 81, N-(2-methoxyethyl)-1-(tetrahydro-2H-pyran-4-yl)-2-((5-(trifluoromethoxy)-1H-benzo[d]imidazol-2-yl)amino)-1H-benzo[d]imidazole-5-carboxamide]: the EC50 was 2.3 µM.

Consider `Cn1c(Nc2nc3cc(Cl)ccc3[nH]2)nc2cc(C(=O)O)ccc21` [Example 82, 2-((5-chloro-1H-benzo[d]imidazol-2-yl)amino)-1-methyl-1H-benzo[d]imidazole-5-carboxylic acid], for which the EC50 was 2.4 µM.

With `COCCNC(=O)c1ccc2c(c1)nc(Nc1nc3cc(Cl)ccc3[nH]1)n2C` [Example 83, 2-((5-chloro-1H-benzo[d]imidazol-2-yl)amino)-N-(2-methoxyethyl)-1-methyl-1H-benzo[d]imidazole-5-carboxamide], the EC50 is 1.8 µM.

Turning to `CCn1c(Nc2nc3ccc(OC(F)(F)F)cc3o2)nc2cc(C(=O)O)ccc21` [Example 84, 1-ethyl-2-((6-(trifluoromethoxy)benzo[d]oxazol-2-yl)amino)-1H-benzo[d]imidazole-5-carboxylic acid], the concentration for a half-maximal effect (EC50) was determined as 5.4 µM.
